pEC50, pIC50: −log10 of the molar value.
Assays:
NS3/NS4 complexes = NS3/NS4 complexes (Hepatitis C virus genotype 1a, UniProt P27958); test: biochemical; conditions: NS3-NS4 activity; 23° C., pH 7.5, 25 μM NS4A peptide; read-out: IC50
From the text: NS3-NS4 inhibition activity can be determined using known assay methods. For example, NS3/NS4 complexes may be formed and inhibitory concentrations of test compounds determined as described in U.S. Patent Application Publication Number 2007/0054842 paragraph numbers 1497-1509, which is incorporated herein by reference in its entirety. Similarly, hepatitis C replicon EC50 may be determined using known assay methods such as described in U.S. Patent Application Publication Number 2007/0054842 paragraph numbers 1510-1515, which is incorporated herein by reference in its entirety. Assays may be conducted at ambient temperature (23° C.) in assay buffer containing 50 mM Tris-HCl, pH 7.5, 15% glycerol, 0.6 mM Lauryldimethylamine Oxide (LDAO), 25 μM NS4A peptide, and 10 mM Dithiothreitol (DTT).

hepatitis C replicon = hepatitis C replicon EC50 assay; type: cell-based; conditions: Hepatitis C virus; hepatitis C replicon; read-out: EC50
From the text: NS3-NS4 inhibition activity can be determined using known assay methods.

Sequence of NS3/NS4 complexes (P27958 1027-1657, one chain of several): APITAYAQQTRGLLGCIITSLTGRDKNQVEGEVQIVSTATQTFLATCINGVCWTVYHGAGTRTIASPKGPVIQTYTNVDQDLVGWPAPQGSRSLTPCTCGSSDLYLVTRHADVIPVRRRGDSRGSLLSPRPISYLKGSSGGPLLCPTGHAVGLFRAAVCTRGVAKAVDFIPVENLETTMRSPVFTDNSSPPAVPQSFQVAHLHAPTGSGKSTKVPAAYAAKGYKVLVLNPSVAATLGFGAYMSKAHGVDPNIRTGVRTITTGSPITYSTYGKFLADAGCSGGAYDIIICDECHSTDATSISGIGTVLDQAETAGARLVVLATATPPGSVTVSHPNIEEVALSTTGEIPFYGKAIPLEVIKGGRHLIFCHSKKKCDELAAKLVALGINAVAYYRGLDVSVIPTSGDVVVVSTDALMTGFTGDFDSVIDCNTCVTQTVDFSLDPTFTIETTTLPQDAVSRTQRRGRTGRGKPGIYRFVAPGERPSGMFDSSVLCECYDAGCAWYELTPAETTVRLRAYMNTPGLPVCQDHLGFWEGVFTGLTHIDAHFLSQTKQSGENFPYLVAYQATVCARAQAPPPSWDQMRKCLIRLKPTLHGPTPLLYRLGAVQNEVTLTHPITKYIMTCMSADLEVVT

| SMILES | pIC50 (NS3/NS4 complexes) | pEC50 (hepatitis C replicon) |
| --- | --- | --- |
| CC(C)n1c(O[C@@H]2C[C@H]3C(=O)N[C@]4(C(=O)NS(=O)(=O)N(C)C)C[C@H]4/C=C\CCCCC[C@H](NC(=O)OC(C)(C)C)C(=O)N3C2)nc2c(-c3nc(Cc4cccc(C(F)(F)F)c4)cs3)cccc21 [Compound 149] | > 8.00 | 7.00 to 8.00 |
| CC(C)n1c(O[C@@H]2C[C@H]3C(=O)N[C@]4(C(=O)NS(=O)(=O)C5(C)CC5)C[C@H]4/C=C\CCCCC[C@H](NC(=O)OC(C)(C)C)C(=O)N3C2)nc2c(-c3nc(-c4ccc(F)cc4F)cs3)cccc21 [Compound 111] | > 8.00 | 7.00 to 8.00 |
| CC(C)n1c(O[C@@H]2C[C@H]3C(=O)N[C@]4(C(=O)NS(=O)(=O)C5(C)CC5)C[C@H]4/C=C\CCCCC[C@H](NC(=O)OC(C)(C)C)C(=O)N3C2)nc2c(-c3csc(N4CCCC4)n3)cccc21 [Compound 125] | > 8.00 | > 8.00 |
| CC(C)n1c(O[C@@H]2C[C@H]3C(=O)N[C@]4(C(=O)NS(=O)(=O)N(C)C)C[C@H]4/C=C\CCCCC[C@H](NC(=O)OC(C)(C)C)C(=O)N3C2)nc2c(-c3nc(Cc4ccc(Cl)cc4)cs3)cccc21 [Compound 151] | > 8.00 | > 8.00 |
| CC(C)n1c(O[C@@H]2C[C@H]3C(=O)N[C@]4(C(=O)NS(=O)(=O)N(C)C)C[C@H]4/C=C\CCCCC[C@H](NC(=O)OC(C)(C)C)C(=O)N3C2)nc2c(-c3nc(-c4ccc(C(C)(C)C)cc4)cs3)cccc21 [Compound 143] | > 8.00 | 7.00 to 8.00 |
| CC(C)n1c(O[C@@H]2C[C@H]3C(=O)N[C@]4(C(=O)NS(=O)(=O)C5(C)CC5)C[C@H]4/C=C\CCCCC[C@H](NC(=O)OC(C)(C)C)C(=O)N3C2)nc2c(-c3nc(C4CCOCC4)cs3)cccc21 [Compound 181] | > 8.00 | > 8.00 |
| CC(C)n1c(O[C@@H]2C[C@H]3C(=O)N[C@]4(C(=O)NS(=O)(=O)C5CC5)C[C@H]4/C=C\CCCCC[C@H](NC(=O)OC(C)(C)C)C(=O)N3C2)nc2c(-c3nc(C4CCNCC4)cs3)cccc21 [Compound 190] | > 8.00 | > 8.00 |
| CC(C)n1c(O[C@@H]2C[C@H]3C(=O)N[C@]4(C(=O)NS(=O)(=O)N(C)C)C[C@H]4/C=C\CCCCC[C@H](NC(=O)OC(C)(C)C)C(=O)N3C2)nc2c(-c3nc(Cc4cccc(OC(F)(F)F)c4)cs3)cccc21 [Compound 150] | > 8.00 | 7.00 to 8.00 |
| CC(C)n1c(O[C@@H]2C[C@H]3C(=O)N[C@]4(C(=O)NS(=O)(=O)C5(C)CC5)C[C@H]4/C=C\CCCCC[C@H](NC(=O)OC(C)(C)C)C(=O)N3C2)nc2c(-c3nc(-c4ccc(OC(F)(F)F)cc4)cs3)cccc21 [Compound 110] | > 8.00 | < 7.00 |
| CC(C)n1c(O[C@@H]2C[C@H]3C(=O)N[C@]4(C(=O)NS(=O)(=O)N(C)C)C[C@H]4/C=C\CCCCC[C@H](NC(=O)OC(C)(C)C)C(=O)N3C2)nc2c(-c3nc(-c4ccc(F)c(C(F)(F)F)c4)cs3)cccc21 [Compound 135] | > 8.00 | < 7.00 |
| COc1ccc(Cc2csc(-c3cccc4c3nc(O[C@@H]3C[C@H]5C(=O)N[C@]6(C(=O)NS(=O)(=O)C7(C)CC7)C[C@H]6/C=C\CCCCC[C@H](NC(=O)OC(C)(C)C)C(=O)N5C3)n4C(C)C)n2)cc1 [Compound 124] | > 8.00 | > 8.00 |
| COc1cccc(-c2csc(-c3cccc4c3nc(O[C@@H]3C[C@H]5C(=O)N[C@]6(C(=O)NS(=O)(=O)C7(C)CC7)C[C@H]6/C=C\CCCCC[C@H](NC(=O)OC(C)(C)C)C(=O)N5C3)n4C(C)C)n2)c1 [Compound 103] | > 8.00 | > 8.00 |
| COc1ccc(Cc2csc(-c3cccc4c3nc(O[C@@H]3C[C@H]5C(=O)N[C@]6(C(=O)NS(=O)(=O)N(C)C)C[C@H]6/C=C\CCCCC[C@H](NC(=O)OC(C)(C)C)C(=O)N5C3)n4C(C)C)n2)cc1 [Compound 157] | > 8.00 | > 8.00 |
| Cc1nc2cccc(-c3nc(C4CCCCC4)cs3)c2nc1O[C@@H]1C[C@H]2C(=O)N[C@]3(C(=O)NS(=O)(=O)C4(C)CC4)C[C@H]3/C=C\CCCCC[C@H](NC(=O)OC(C)(C)C)C(=O)N2C1 [Compound 703] | > 8.00 | > 8.00 |
| CC(C)n1c(O[C@@H]2C[C@H]3C(=O)N[C@]4(C(=O)NS(=O)(=O)C5(C)CC5)C[C@H]4/C=C\CCCCC[C@H](NC(=O)OC(C)(C)C)C(=O)N3C2)nc2c(-c3csc(C(F)(F)F)n3)cccc21 [Compound 176] | > 8.00 | > 8.00 |
| CC(C)n1c(O[C@@H]2C[C@H]3C(=O)N[C@]4(C(=O)NS(=O)(=O)N(C)C)C[C@H]4/C=C\CCCCC[C@H](NC(=O)OC(C)(C)C)C(=O)N3C2)nc2c(-c3nc(-c4ccc(F)cc4)cs3)cccc21 [Compound 134] | > 8.00 | 7.00 to 8.00 |
| CC(C)c1csc(-c2cc(O[C@@H]3C[C@H]4C(=O)N[C@]5(C(=O)NS(=O)(=O)C6(C)CC6)C[C@H]5/C=C\CCCCC[C@H](N)C(=O)N4C3)ccn2)n1 [Compound 602] | > 8.00 | < 7.00 |

| SMILES | pIC50 (NS3/NS4 complexes) | pEC50 (hepatitis C replicon) |
| --- | --- | --- |
| CC(C)n1c(O[C@@H]2C[C@H]3C(=O)N[C@]4(C(=O)NS(=O)(=O)C5(C)CC5)C[C@H]4/C=C\CCCCC[C@H](NC(=O)OC(C)(C)C)C(=O)N3C2)nc2c(-c3cscn3)cccc21 [Compound 129] | > 8.00 | > 8.00 |
| CC(C)n1c(O[C@@H]2C[C@H]3C(=O)N[C@]4(C(=O)NS(=O)(=O)N(C)C)C[C@H]4/C=C\CCCCC[C@H](NC(=O)OC(C)(C)C)C(=O)N3C2)nc2c(-c3nc(Cc4ccc(OC(F)(F)F)cc4)cs3)cccc21 [Compound 155] | > 8.00 | 7.00 to 8.00 |
| CC(C)(C)OC(=O)N[C@H]1CCCCC/C=C\[C@@H]2C[C@@]2(C(=O)NS(=O)(=O)C2(C)CC2)NC(=O)[C@@H]2C[C@@H](Oc3nc4cccc(-c5nc(-c6ccccc6)cs5)c4s3)CN2C1=O [Compound 201] | > 8.00 | > 8.00 |
| COc1ccccc1Cc1csc(-c2cccc3c2nc(O[C@@H]2C[C@H]4C(=O)N[C@]5(C(=O)NS(=O)(=O)N(C)C)C[C@H]5/C=C\CCCCC[C@H](NC(=O)OC(C)(C)C)C(=O)N4C2)n3C(C)C)n1 [Compound 147] | > 8.00 | > 8.00 |
| CC(C)n1c(O[C@@H]2C[C@H]3C(=O)N[C@]4(C(=O)NS(=O)(=O)C5(C)CC5)C[C@H]4/C=C\CCCCC[C@H](NC(=O)OC(C)(C)C)C(=O)N3C2)nc2c(-c3nc(-c4cccc(F)c4)cs3)cccc21 [Compound 104] | > 8.00 | 7.00 to 8.00 |
| CC(C)n1c(O[C@@H]2C[C@H]3C(=O)N[C@]4(C(=O)NS(=O)(=O)C5(C)CC5)C[C@H]4/C=C\CCCCC[C@H](NC(=O)OC(C)(C)C)C(=O)N3C2)nc2c(-c3nc(-c4ccc(F)c(F)c4)cs3)cccc21 [Compound 108] | > 8.00 | > 8.00 |
| COc1ccccc1-c1csc(-c2cccc3c2nc(O[C@@H]2C[C@H]4C(=O)N[C@]5(C(=O)NS(=O)(=O)C6(C)CC6)C[C@H]5/C=C\CCCCC[C@H](N)C(=O)N4C2)n3C(C)C)n1 [Compound 177] | > 8.00 | < 7.00 |
| CC(C)n1c(O[C@@H]2C[C@H]3C(=O)N[C@]4(C(=O)NS(=O)(=O)N(C)C)C[C@H]4/C=C\CCCCC[C@H](NC(=O)OC(C)(C)C)C(=O)N3C2)nc2c(-c3nc(-c4cccc(Cl)c4)cs3)cccc21 [Compound 130] | > 8.00 | 7.00 to 8.00 |
| Cc1ccc2c(nc(O[C@@H]3C[C@H]4C(=O)N[C@]5(C(=O)NS(=O)(=O)N(C)C)C[C@H]5/C=C\CCCCC[C@H](NC(=O)OC(C)(C)C)C(=O)N4C3)n2C(C)C)c1-c1nc(C(C)C)cs1 [Compound 167] | > 8.00 | 7.00 to 8.00 |
| COc1cccc(Cc2csc(-c3cccc4c3nc(O[C@@H]3C[C@H]5C(=O)N[C@]6(C(=O)NS(=O)(=O)N(C)C)C[C@H]6/C=C\CCCCC[C@H](NC(=O)OC(C)(C)C)C(=O)N5C3)n4C(C)C)n2)c1 [Compound 152] | > 8.00 | > 8.00 |
| CC(C)n1c(O[C@@H]2C[C@H]3C(=O)N[C@]4(C(=O)NS(=O)(=O)N(C)C)C[C@H]4/C=C\CCCCC[C@H](NC(=O)OC(C)(C)C)C(=O)N3C2)nc2c(-c3nc(Cc4ccccc4F)cs3)cccc21 [Compound 156] | > 8.00 | > 8.00 |
| CC(C)(C)OC(=O)N[C@H]1CCCCC/C=C\[C@@H]2C[C@@]2(C(=O)NS(=O)(=O)C2(C)CC2)NC(=O)[C@@H]2C[C@@H](Oc3nc4cccc(-c5nc(C6CCCCC6)cs5)c4nc3C(F)(F)F)CN2C1=O [Compound 701] | > 8.00 | < 7.00 |
| CC(C)n1c(O[C@@H]2C[C@H]3C(=O)N[C@]4(C(=O)NS(=O)(=O)N(C)C)C[C@H]4/C=C\CCCCC[C@H](NC(=O)OC(C)(C)C)C(=O)N3C2)nc2c(-c3cncc(N4CCCC4)n3)cccc21 [Compound 162] | > 8.00 | > 8.00 |
| COc1ccccc1-c1csc(-c2cccc3c2nc(O[C@@H]2C[C@H]4C(=O)N[C@]5(C(=O)NS(=O)(=O)C6(C)CC6)C[C@H]5/C=C\CCCCC[C@H](NC(=O)OC(C)(C)C)C(=O)N4C2)n3C(C)C)n1 [Compound 102] | > 8.00 | > 8.00 |
| CC(C)n1c(O[C@@H]2C[C@H]3C(=O)N[C@]4(C(=O)NS(=O)(=O)N(C)C)C[C@H]4/C=C\CCCCC[C@H](NC(=O)OC(C)(C)C)C(=O)N3C2)nc2c(-c3nc(-c4ccc(F)c(F)c4)cs3)cccc21 [Compound 140] | > 8.00 | > 8.00 |
| Cc1ccc2c(nc(O[C@@H]3C[C@H]4C(=O)N[C@]5(C(=O)NS(=O)(=O)N(C)C)C[C@H]5/C=C\CCCCC[C@H](NC(=O)OC(C)(C)C)C(=O)N4C3)n2C(C)C)c1-c1nc(C2CCCC2)cs1 [Compound 168] | > 8.00 | 7.00 to 8.00 |
